Results reported in PubChem BioAssay (NCI).
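Cultured in 96-well plates, cells were exposed to test compound for 48 hours across five concentrations. The concentration for full growth arrest is given as TGI.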

Legend:
Assay in all cases: inhibition of tumour cell growth, NCI panel, 48 h
RXF 393 renal = test system: RXF 393 renal
SK-MEL-5 melanoma = test system: SK-MEL-5 melanoma
IGROV1 ovarian = test system: IGROV1 ovarian
RPMI-8226 leukemia = test system: RPMI-8226 leukemia
A549 NSCLC = test system: A549 NSCLC
UO-31 renal = test system: UO-31 renal
UACC-62 melanoma = test system: UACC-62 melanoma
NCI-H23 lung = test system: NCI-H23 lung
HOP-18 NSCLC = test system: HOP-18 NSCLC
LOX IMVI melanoma = test system: LOX IMVI melanoma
HOP-62 NSCLC = test system: HOP-62 NSCLC
LXFL 529 NSCLC = test system: LXFL 529 NSCLC
ACHN renal = test system: ACHN renal
OVCAR-8 ovarian = test system: OVCAR-8 ovarian
M14 melanoma = test system: M14 melanoma
SF-295 CNS = test system: SF-295 CNS
OVCAR-3 ovarian = test system: OVCAR-3 ovarian
SNB-75 CNS = test system: SNB-75 CNS
COLO 205 colon = test system: COLO 205 colon
SK-MEL-28 melanoma = test system: SK-MEL-28 melanoma
KM20L2 colon = test system: KM20L2 colon
EKVX NSCLC = test system: EKVX NSCLC
SW-620 colon = test system: SW-620 colon
XF 498 CNS = test system: XF 498 CNS
M19-MEL melanoma = test system: M19-MEL melanoma
HOP-92 NSCLC = test system: HOP-92 NSCLC
TK-10 renal = test system: TK-10 renal
HCT-116 colon = test system: HCT-116 colon
U251 CNS = test system: U251 CNS
786-0 renal = test system: 786-0 renal
DLD-1 colon = test system: DLD-1 colon
SK-MEL-2 melanoma = test system: SK-MEL-2 melanoma
SF-539 CNS = test system: SF-539 CNS
SK-OV-3 ovarian = test system: SK-OV-3 ovarian
DMS 114 small cell lung = test system: DMS 114 small cell lung
MALME-3M melanoma = test system: MALME-3M melanoma
UACC-257 melanoma = test system: UACC-257 melanoma
SR leukemia = test system: SR leukemia
SNB-19 CNS = test system: SNB-19 CNS
SNB-78 CNS = test system: SNB-78 CNS
NCI-H460 lung = test system: NCI-H460 lung
HT29 colon = test system: HT29 colon
NCI-H522 lung = test system: NCI-H522 lung
DMS 273 small cell lung = test system: DMS 273 small cell lung
KM12 colon = test system: KM12 colon
HCC-2998 colon = test system: HCC-2998 colon
SF-268 CNS = test system: SF-268 CNS
OVCAR-5 ovarian = test system: OVCAR-5 ovarian
MOLT-4 leukemia = test system: MOLT-4 leukemia
HCT-15 colon = test system: HCT-15 colon
NCI-H226 lung = test system: NCI-H226 lung
SN12C renal = test system: SN12C renal
MDA-MB-231 breast = test system: MDA-MB-231 breast
BT-549 breast = test system: BT-549 breast
MDA-MB-435 = test system: MDA-MB-435
T-47D breast = test system: T-47D breast
OVCAR-4 ovarian = test system: OVCAR-4 ovarian
PC-3 prostate = test system: PC-3 prostate
MDA-N = test system: MDA-N
A498 renal = test system: A498 renal
NCI/ADR-RES ovarian = test system: NCI/ADR-RES ovarian
MCF7 breast = test system: MCF7 breast
CCRF-CEM leukemia = test system: CCRF-CEM leukemia
DU-145 prostate = test system: DU-145 prostate
K-562 leukemia = test system: K-562 leukemia
HL-60(TB) leukemia = test system: HL-60(TB) leukemia
HS 578T breast = test system: HS 578T breast
CAKI-1 renal = test system: CAKI-1 renal

COc1ccc(-c2ccccc2)c(N/N=C2\CCCNC2=O)c1
TGI (RXF 393 renal): 27.5 µM | TGI (SK-MEL-5 melanoma): > 100 µM | TGI (IGROV1 ovarian): > 100 µM | TGI (RPMI-8226 leukemia): > 100 µM | TGI (A549 NSCLC): 27 µM | TGI (UO-31 renal): > 100 µM | TGI (UACC-62 melanoma): > 100 µM | TGI (NCI-H23 lung): > 100 µM | TGI (HOP-18 NSCLC): > 100 µM | TGI (LOX IMVI melanoma): > 100 µM | TGI (HOP-62 NSCLC): 87.1 µM | TGI (LXFL 529 NSCLC): > 100 µM | TGI (ACHN renal): > 100 µM | TGI (OVCAR-8 ovarian): > 100 µM | TGI (M14 melanoma): > 100 µM | TGI (SF-295 CNS): > 100 µM | TGI (OVCAR-3 ovarian): > 100 µM | TGI (SNB-75 CNS): > 100 µM | TGI (COLO 205 colon): > 100 µM | TGI (SK-MEL-28 melanoma): > 100 µM | TGI (KM20L2 colon): > 100 µM | TGI (EKVX NSCLC): > 100 µM | TGI (SW-620 colon): > 100 µM | TGI (XF 498 CNS): 87.7 µM | TGI (M19-MEL melanoma): > 100 µM | TGI (HOP-92 NSCLC): > 100 µM | TGI (TK-10 renal): > 100 µM | TGI (HCT-116 colon): 25.8 µM | TGI (U251 CNS): > 100 µM | TGI (786-0 renal): > 100 µM | TGI (DLD-1 colon): > 100 µM | TGI (SK-MEL-2 melanoma): > 100 µM | TGI (SF-539 CNS): > 100 µM | TGI (SK-OV-3 ovarian): > 100 µM | TGI (DMS 114 small cell lung): > 100 µM | TGI (MALME-3M melanoma): > 100 µM | TGI (UACC-257 melanoma): > 100 µM | TGI (SR leukemia): > 100 µM | TGI (SNB-19 CNS): > 100 µM | TGI (SNB-78 CNS): > 100 µM | TGI (NCI-H460 lung): > 100 µM | TGI (HT29 colon): > 100 µM | TGI (NCI-H522 lung): > 100 µM | TGI (DMS 273 small cell lung): > 100 µM | TGI (KM12 colon): > 100 µM | TGI (HCC-2998 colon): > 100 µM | TGI (SF-268 CNS): > 100 µM | TGI (OVCAR-5 ovarian): > 100 µM | TGI (MOLT-4 leukemia): > 100 µM | TGI (HCT-15 colon): > 100 µM | TGI (NCI-H226 lung): > 100 µM | TGI (SN12C renal): > 100 µM

COc1ccc(NC(=O)CSc2nnc(-c3ccc(N=Cc4ccc(Cl)cc4)cc3)o2)cc1
TGI (MDA-MB-231 breast): > 100 µM | TGI (BT-549 breast): > 100 µM | TGI (RXF 393 renal): > 100 µM | TGI (SK-MEL-5 melanoma): > 100 µM | TGI (MDA-MB-435): > 100 µM | TGI (IGROV1 ovarian): > 100 µM | TGI (RPMI-8226 leukemia): > 80.7 µM | TGI (A549 NSCLC): > 100 µM | TGI (UO-31 renal): > 100 µM | TGI (T-47D breast): > 100 µM | TGI (UACC-62 melanoma): > 100 µM | TGI (NCI-H23 lung): > 93.5 µM | TGI (HOP-18 NSCLC): 68.1 µM | TGI (LOX IMVI melanoma): 31.9 µM | TGI (HOP-62 NSCLC): > 88.6 µM | TGI (LXFL 529 NSCLC): > 100 µM | TGI (ACHN renal): > 86.9 µM | TGI (OVCAR-8 ovarian): > 100 µM | TGI (M14 melanoma): > 96.3 µM | TGI (OVCAR-4 ovarian): > 100 µM | TGI (SF-295 CNS): > 100 µM | TGI (OVCAR-3 ovarian): 73.2 µM | TGI (SNB-75 CNS): > 86.7 µM | TGI (COLO 205 colon): 44.9 µM | TGI (SK-MEL-28 melanoma): > 100 µM | TGI (KM20L2 colon): > 100 µM | TGI (EKVX NSCLC): > 100 µM | TGI (SW-620 colon): > 100 µM | TGI (PC-3 prostate): > 100 µM | TGI (MDA-N): > 100 µM | TGI (A498 renal): > 100 µM | TGI (XF 498 CNS): 59.2 µM | TGI (NCI/ADR-RES ovarian): > 100 µM | TGI (M19-MEL melanoma): 68.1 µM | TGI (MCF7 breast): > 100 µM | TGI (CCRF-CEM leukemia): > 82.7 µM | TGI (HOP-92 NSCLC): 71.4 µM | TGI (TK-10 renal): > 100 µM | TGI (HCT-116 colon): > 49.5 µM | TGI (U251 CNS): > 100 µM | TGI (786-0 renal): > 100 µM | TGI (DU-145 prostate): > 100 µM | TGI (SK-MEL-2 melanoma): 45.8 µM | TGI (SK-OV-3 ovarian): > 100 µM | TGI (DMS 114 small cell lung): 80.1 µM | TGI (MALME-3M melanoma): > 100 µM | TGI (UACC-257 melanoma): > 96.7 µM | TGI (SR leukemia): 61.2 µM | TGI (SNB-19 CNS): > 100 µM | TGI (SNB-78 CNS): 77.3 µM | TGI (NCI-H460 lung): > 100 µM | TGI (HT29 colon): > 100 µM | TGI (NCI-H522 lung): 96.6 µM | TGI (DMS 273 small cell lung): 79.6 µM | TGI (KM12 colon): > 80.9 µM | TGI (HCC-2998 colon): > 100 µM | TGI (K-562 leukemia): > 100 µM | TGI (SF-268 CNS): > 64.7 µM | TGI (OVCAR-5 ovarian): > 100 µM | TGI (HL-60(TB) leukemia): > 48.8 µM | TGI (MOLT-4 leukemia): > 70.2 µM | TGI (HS 578T breast): > 100 µM | TGI (HCT-15 colon): 29.1 µM | TGI (NCI-H226 lung): > 76.3 µM | TGI (SN12C renal): 56.8 µM

COc1ccc(C2Oc3ccc(O)cc3[C@@H]2C)cc1OC (some centres not stated)
TGI (RXF 393 renal): > 100 µM | TGI (SK-MEL-5 melanoma): > 100 µM | TGI (IGROV1 ovarian): > 100 µM | TGI (RPMI-8226 leukemia): > 100 µM | TGI (A549 NSCLC): > 100 µM | TGI (UO-31 renal): > 100 µM | TGI (UACC-62 melanoma): > 100 µM | TGI (NCI-H23 lung): > 100 µM | TGI (HOP-18 NSCLC): > 100 µM | TGI (LOX IMVI melanoma): > 100 µM | TGI (HOP-62 NSCLC): > 100 µM | TGI (LXFL 529 NSCLC): > 100 µM | TGI (ACHN renal): > 100 µM | TGI (OVCAR-8 ovarian): > 100 µM | TGI (M14 melanoma): > 100 µM | TGI (OVCAR-4 ovarian): > 100 µM | TGI (SF-295 CNS): > 100 µM | TGI (OVCAR-3 ovarian): > 100 µM | TGI (SNB-75 CNS): > 100 µM | TGI (COLO 205 colon): > 100 µM | TGI (SK-MEL-28 melanoma): > 100 µM | TGI (KM20L2 colon): > 100 µM | TGI (EKVX NSCLC): > 100 µM | TGI (SW-620 colon): > 100 µM | TGI (CAKI-1 renal): > 100 µM | TGI (XF 498 CNS): > 100 µM | TGI (M19-MEL melanoma): > 100 µM | TGI (CCRF-CEM leukemia): > 100 µM | TGI (HOP-92 NSCLC): > 100 µM | TGI (TK-10 renal): > 100 µM | TGI (HCT-116 colon): > 100 µM | TGI (U251 CNS): > 100 µM | TGI (786-0 renal): > 100 µM | TGI (DLD-1 colon): > 100 µM | TGI (SK-MEL-2 melanoma): > 100 µM | TGI (SF-539 CNS): > 100 µM | TGI (SK-OV-3 ovarian): > 100 µM | TGI (DMS 114 small cell lung): > 100 µM | TGI (MALME-3M melanoma): > 100 µM | TGI (UACC-257 melanoma): > 100 µM | TGI (SNB-19 CNS): > 100 µM | TGI (SNB-78 CNS): > 100 µM | TGI (NCI-H460 lung): > 100 µM | TGI (HT29 colon): > 100 µM | TGI (NCI-H522 lung): > 100 µM | TGI (DMS 273 small cell lung): > 100 µM | TGI (KM12 colon): > 100 µM | TGI (HCC-2998 colon): > 100 µM | TGI (K-562 leukemia): > 100 µM | TGI (SF-268 CNS): > 100 µM | TGI (OVCAR-5 ovarian): > 100 µM | TGI (HL-60(TB) leukemia): > 100 µM | TGI (MOLT-4 leukemia): > 100 µM | TGI (HCT-15 colon): > 100 µM | TGI (NCI-H226 lung): > 100 µM
